Experimental data from paper PMC11481871, “Discovery of GuaB inhibitors with efficacy against Acinetobacter baumannii infection” (mBio, 2024).
In brackets after ≈: the same amount, converted by molar mass. Like-named read-outs stand apart in the source and are kept apart here.

Key:
[1] = system: A. baumannii ΔlpxA (LPS-null); experiment: MIC on LPS-null A. baumannii; assay type: cell-based; conditions: Acinetobacter baumannii, read-out: Avg. MIC
E. coli GuaB = E. coli GuaB (Escherichia coli, UniProt P0ADG7); experiment: GuaB biochemical IC50
Enterococcus faecalis = experiment: MIC, CLSI microdilution; assay type: cell-based; conditions: Enterococcus faecalis (ATCC47077); RPMI1640
Enterobacter cloacae = experiment: MIC, CLSI microdilution; assay type: cell-based; conditions: 20 h; Enterobacter cloacae (ATCC222); M9 + casamino acids + glucose
[2] = system: Primary human hepatocytes; experiment: in vitro; assay type: cell-based
Protocol: (§1) Primary human hepatocytes were plated on 384-well, collagen-coated plates in incubation media with no serum or with 10% fetal bovine serum (FBS). Eighteen hours later, cells were treated with the test article at seven concentrations starting at 100 µM in twofold dilutions, chlorpromazine (positive control) at seven concentrations starting at 100 µM in twofold dilutions or aflatoxin (positive control) at seven concentrations starting at 25 µM in twofold dilutions. Cell viability was then assayed using the Promega Cell TiterGlo ATP Assay.

in vitro = assay type: cell-based, human; conditions: human
Protocol: as §1

Enterococcus faecium = experiment: MIC, CLSI microdilution; assay type: cell-based; conditions: Enterococcus faecium (ATCC700221); RPMI1640
Klebsiella pneumoniae = experiment: MIC, CLSI microdilution; assay type: cell-based; conditions: ATCC43816, 20 h; Klebsiella pneumoniae (ATCC 43816); M9 + casamino acids + glucose
Bacillus subtilis = experiment: MIC, CLSI microdilution; assay type: cell-based; conditions: RPMI1640
[3] = system: A. baumannii ΔadeJ (efflux-defective); experiment: microbe, parasite or virus in culture; assay type: cell-based; conditions: Acinetobacter baumannii, read-out: Avg. MIC
Mycobacterium smegmatis = experiment: MIC, CLSI microdilution; assay type: cell-based; conditions: Mycolicibacterium smegmatis; Mycobacterium smegmatis mc2-155; 7H9 + OADC, 48 h
Escherichia coli = experiment: MIC, CLSI microdilution; assay type: cell-based; conditions: 20 h; Escherichia coli UPEC CFT073; M9 + casamino acids + glucose
Pseudomonas aeruginosa = experiment: MIC, CLSI microdilution; assay type: cell-based; conditions: 20 h; Pseudomonas aeruginosa PAO1; M9 + casamino acids + glucose
A. baumannii GuaB = A. baumannii GuaB (Acinetobacter baumannii, UniProt D0CF46); experiment: GuaB biochemical IC50
hERG = target: T1, hERG (Homo sapiens, UniProt Q12809); experiment: hERG 2-point automatic patch clamp assay; assay type: cell-based
T1 construct: expressed in transfected cells; host or cells: HEK293
Protocol: All chemicals used in solution preparation were purchased from Sigma-Aldrich (St. Louis, MO) unless otherwise noted. Test article and positive control concentrations were prepared fresh daily by diluting stock solutions into a HEPES-buffered physiological saline solution (composition in mM): NaCl, 137; KCl, 4.0; CaCl2, 1.8; MgCl2, 1; HEPES, 10; glucose, 10; pH adjusted to 7.4 with NaOH. HEK293 cells were stably transfected with hERG cDNA and maintained in the culture medium with the appropriate selection pressure and antibiotics. All experiments were performed at room temperature. […]
In preparation for a recording session, intracellular solution was loaded into the intracellular compartments of the QPlate and cell suspension was pipetted into the extracellular compartments. After establishment of a whole-cell configuration, membrane currents were recorded using up to 48 parallel patch clamp amplifiers in the QPatch HT system. The current records were sampled at 2,000 Hz and low-pass Bessel filtered at 400 Hz. Onset and block of hERG current were measured using a stimulus voltage pattern consisting of a 500 ms prepulse to –40 mV (leakage subtraction), a 2-s activating pulse to +40 mV, followed by a 2-s test pulse to −40 mV. The pulse pattern was repeated continuously at 10-s intervals, from a holding potential of −80 mV. Peak tail current (upper panel) was measured during the −40 mV test pulse. Leakage current was calculated from the current amplitude evoked by the prepulse and subtracted from the total membrane current record. Data acquisition and analysis was performed using the QPatch Assay Software (Sophion Bioscience A/S, Denmark). Solubility of all compounds was measured using TurboSol in conjunction with the ion channel testing.

S. aureus GuaB = S. aureus GuaB (Staphylococcus aureus, UniProt P99106); experiment: GuaB biochemical IC50
[4] = system: Staphylococcus epidermidis; experiment: MIC, CLSI microdilution; assay type: cell-based; conditions: Staphylococcus epidermidis RP62A (ATCC35984); RPMI1640
Citrobacter werkmanii = experiment: MIC, CLSI microdilution; assay type: cell-based; conditions: 20 h; Citrobacter werkmanii (ATCC51114); M9 + casamino acids + glucose
H. sapiens IMPDH2 = H. sapiens IMPDH2 (Homo sapiens, UniProt P12268); experiment: IMPDH2 biochemical IC50
Enterobacter aerogenes = experiment: MIC, CLSI microdilution; assay type: cell-based; conditions: Klebsiella aerogenes, 20 h; Enterobacter aerogenes (ATCC13048); M9 + casamino acids + glucose
Staphylococcus aureus = experiment: MIC, CLSI microdilution; assay type: cell-based; conditions: NRS 384 / USA300; Staphylococcus aureus USA300 NRS384; RPMI1640
[5] = system: 41 different cellular targets; experiment: Secondary pharmacology panel (Cerep Eurofins); assay type: binding
[6] = system: Acinetobacter baumannii ATCC19606 GuaB mutants; experiment: MIC on GuaBi-resistant A. baumannii 19606 guaB mutants; assay type: cell-based; conditions: for MIC: Acinetobacter baumannii, M9 media

T1 sequence (Q12809 whole entry): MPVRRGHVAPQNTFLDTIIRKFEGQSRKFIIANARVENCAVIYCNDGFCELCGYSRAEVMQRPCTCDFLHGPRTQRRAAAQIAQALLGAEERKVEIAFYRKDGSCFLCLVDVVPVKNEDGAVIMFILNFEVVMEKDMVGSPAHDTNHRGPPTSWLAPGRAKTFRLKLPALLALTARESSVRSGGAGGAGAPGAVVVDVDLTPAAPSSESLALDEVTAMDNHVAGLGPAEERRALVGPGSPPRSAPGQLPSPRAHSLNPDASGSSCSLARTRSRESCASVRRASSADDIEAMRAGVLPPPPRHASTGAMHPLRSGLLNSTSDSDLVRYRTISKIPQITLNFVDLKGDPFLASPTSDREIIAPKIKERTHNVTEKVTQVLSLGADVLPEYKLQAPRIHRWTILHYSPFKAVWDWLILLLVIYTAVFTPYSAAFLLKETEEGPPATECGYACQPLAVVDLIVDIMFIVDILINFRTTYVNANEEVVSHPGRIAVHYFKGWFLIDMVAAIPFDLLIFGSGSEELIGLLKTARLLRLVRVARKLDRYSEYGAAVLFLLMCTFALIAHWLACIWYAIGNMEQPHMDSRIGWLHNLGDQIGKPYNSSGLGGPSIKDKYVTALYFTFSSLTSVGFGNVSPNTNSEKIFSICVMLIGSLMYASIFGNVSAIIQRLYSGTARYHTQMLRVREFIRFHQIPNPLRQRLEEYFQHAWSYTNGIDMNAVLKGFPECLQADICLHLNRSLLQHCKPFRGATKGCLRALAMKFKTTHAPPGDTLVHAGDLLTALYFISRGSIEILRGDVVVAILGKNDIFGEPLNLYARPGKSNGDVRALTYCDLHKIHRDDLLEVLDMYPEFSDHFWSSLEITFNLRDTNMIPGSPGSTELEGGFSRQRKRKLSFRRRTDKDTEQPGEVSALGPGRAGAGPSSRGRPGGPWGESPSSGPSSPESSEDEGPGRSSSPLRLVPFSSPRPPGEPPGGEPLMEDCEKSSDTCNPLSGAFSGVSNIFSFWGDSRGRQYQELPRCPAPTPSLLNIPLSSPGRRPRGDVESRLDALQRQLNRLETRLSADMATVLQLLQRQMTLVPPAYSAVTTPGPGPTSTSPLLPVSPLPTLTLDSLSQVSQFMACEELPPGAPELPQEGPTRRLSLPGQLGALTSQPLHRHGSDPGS
Sequence of S. aureus GuaB (P99106 whole entry): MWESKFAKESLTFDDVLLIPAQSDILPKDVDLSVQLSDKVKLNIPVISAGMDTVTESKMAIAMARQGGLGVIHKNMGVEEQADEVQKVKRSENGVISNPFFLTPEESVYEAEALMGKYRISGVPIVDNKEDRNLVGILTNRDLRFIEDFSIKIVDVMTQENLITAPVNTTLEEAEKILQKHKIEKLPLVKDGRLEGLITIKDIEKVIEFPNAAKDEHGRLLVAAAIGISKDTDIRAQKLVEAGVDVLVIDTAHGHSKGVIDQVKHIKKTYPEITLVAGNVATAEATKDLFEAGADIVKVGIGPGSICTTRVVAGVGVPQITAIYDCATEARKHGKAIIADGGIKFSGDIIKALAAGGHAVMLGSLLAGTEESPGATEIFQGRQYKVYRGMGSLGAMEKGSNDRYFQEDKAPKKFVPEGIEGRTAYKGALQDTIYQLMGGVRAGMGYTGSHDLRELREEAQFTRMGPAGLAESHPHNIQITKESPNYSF
Sequence of E. coli GuaB (P0ADG7 whole entry): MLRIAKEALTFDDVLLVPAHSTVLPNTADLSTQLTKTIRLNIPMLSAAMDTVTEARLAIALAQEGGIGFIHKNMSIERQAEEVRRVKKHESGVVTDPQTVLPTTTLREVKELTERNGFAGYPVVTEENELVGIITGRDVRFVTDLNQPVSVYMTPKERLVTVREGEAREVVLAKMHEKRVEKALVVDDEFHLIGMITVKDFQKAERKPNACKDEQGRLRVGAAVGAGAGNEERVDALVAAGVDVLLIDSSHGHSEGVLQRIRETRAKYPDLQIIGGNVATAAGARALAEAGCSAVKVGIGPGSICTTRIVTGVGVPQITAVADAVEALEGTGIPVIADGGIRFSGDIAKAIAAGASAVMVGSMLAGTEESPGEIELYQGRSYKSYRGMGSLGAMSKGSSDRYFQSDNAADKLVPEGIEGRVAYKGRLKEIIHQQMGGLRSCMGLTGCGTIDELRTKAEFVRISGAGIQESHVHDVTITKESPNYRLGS
Sequence of A. baumannii GuaB (D0CF46 entry or part of it): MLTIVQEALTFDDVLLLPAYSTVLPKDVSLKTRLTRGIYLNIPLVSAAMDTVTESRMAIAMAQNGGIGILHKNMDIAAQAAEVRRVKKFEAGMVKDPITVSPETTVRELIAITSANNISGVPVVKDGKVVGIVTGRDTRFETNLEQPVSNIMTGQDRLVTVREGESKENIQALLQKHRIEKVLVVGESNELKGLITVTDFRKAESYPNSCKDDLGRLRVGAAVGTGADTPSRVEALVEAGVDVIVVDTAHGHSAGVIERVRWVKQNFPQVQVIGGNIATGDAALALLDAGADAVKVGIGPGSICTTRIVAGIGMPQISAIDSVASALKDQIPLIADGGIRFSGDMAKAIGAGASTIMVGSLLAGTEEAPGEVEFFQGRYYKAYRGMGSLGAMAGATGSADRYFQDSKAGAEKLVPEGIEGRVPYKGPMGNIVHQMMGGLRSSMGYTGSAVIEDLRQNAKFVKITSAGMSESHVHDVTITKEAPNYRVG

Question: With `C[C@@H](Oc1ccc2ncc3c(c2c1)CCOC3)c1cncc(-c2nc(Cl)c[nH]2)c1` [G8, (R)-9-[1-[5-(4-chloro-1H-imidazol-2-yl)-3-pyridyl]ethoxy]-2,4-dihydro-1H-pyrano[3,4 c]quinoline] as the molecule, how does the MIC [1] read?
Answer: 0.007 µM (≈ 0.00285 µg/mL)

Question: And the IC50 (E. coli GuaB)?
Answer: 8 nM

Question: What about the MIC (Enterococcus faecalis) of the same molecule?
Answer: 0.01 µM (≈ 0.00407 µg/mL)

Question: What about the MIC (Enterobacter cloacae) of the same molecule?
Answer: > 100 µM

Question: And the “in vitro safety profile: cytotoxicity” value [2]?
Answer: cytotoxicity liabilities

Question: And the IC50 at 2 day (in vitro; General cytotoxicity IC50, Serum)?
Answer: 19200 nM

Question: What about the IC50 at 2 day (in vitro; General cytotoxicity IC50, Serum-Free) of the same molecule?
Answer: 30200 nM

Question: And the MIC (Enterococcus faecium)?
Answer: 0.03 µM (≈ 0.0122 µg/mL)

Question: What about the MIC (Klebsiella pneumoniae) of the same molecule?
Answer: > 100 µM

Question: What about the MIC (Bacillus subtilis) of the same molecule?
Answer: 0.05 µM (≈ 0.0203 µg/mL)

Question: What about the MIC [3] of the same molecule?
Answer: 0.01 µM (≈ 0.00407 µg/mL)

Question: And the MIC (Mycobacterium smegmatis)?
Answer: 0.02 µM

Question: And the MIC (Escherichia coli)?
Answer: > 100 µM

Question: And the MIC (Pseudomonas aeruginosa)?
Answer: 50 µM

Question: And the IC50 (A. baumannii GuaB)?
Answer: 0.14 nM

Question: And the “hERG 10µM” value (hERG; 10µM)?
Answer: 6.3%

Question: What about the “hERG 50µM” value (hERG; 50µM) of the same molecule?
Answer: 50.1%

Question: And the IC50 (S. aureus GuaB)?
Answer: 0.21 nM

Question: And the MIC [4]?
Answer: 0.004 µM (≈ 0.00163 µg/mL)

Question: And the MIC (Citrobacter werkmanii)?
Answer: > 100 µM

Question: And the IC50 (H. sapiens IMPDH2)?
Answer: > 50000 nM

Question: What about the MIC (Enterobacter aerogenes) of the same molecule?
Answer: > 100 µM

Question: And the MIC (Staphylococcus aureus)?
Answer: 0.01 µM (≈ 0.00407 µg/mL)

Question: And the “in vitro safety profile: promiscuity” value [5]?
Answer: high promiscuity risk

Question: What about the “in vitro safety profile: selectivity” value [5] of the same molecule?
Answer: off-target selectivity

Question: What about the “Promiscuity Risk” value ([5]; 50µM) of the same molecule?
Answer: 51%

Question: And the “Selectivity Risk” value ([5]; 50µM)?
Answer: 17%

Question: What about the “Hits (>50% Binding)” value ([5]; 50µM, 41 targets) of the same molecule?
Answer: 21

Question: What about the “Hits (>75% Binding)” value ([5]; 50µM, 41 targets) of the same molecule?
Answer: 7

Question: What about the MIC ([6]; ATCC19606, read-out: A.b.19606 Average CLSI MIC (n=3), guaB allele P25A) of the same molecule?
Answer: 0.8 µM (≈ 0.325 µg/mL)

Question: What about the MIC ([6]; ATCC19606, read-out: A.b.19606 Average CLSI MIC (n=3), guaB allele P25S) of the same molecule?
Answer: 0.6 µM (≈ 0.244 µg/mL)

Question: What about the MIC ([6]; ATCC19606, read-out: A.b.19606 Average CLSI MIC (n=3), guaB allele Y445C) of the same molecule?
Answer: 0.2 µM (≈ 0.0814 µg/mL)

Question: And the MIC ([6]; ATCC19606, read-out: A.b.19606 Average CLSI MIC (n=3), guaB allele Y445N)?
Answer: 1.8 µM (≈ 0.732 µg/mL)

Question: And the MIC ([6]; ATCC19606, read-out: A.b.19606 Average CLSI MIC (n=3), guaB allele Y445S)?
Answer: 8.3 µM (≈ 3.38 µg/mL)

Question: And the “GuaBi CLSI MIC fold change from parent strain” value (“GuaBi CLSI MIC fold change” for short) ([6]; guaB allele P25A)?
Answer: 3.3

Question: What about the “GuaBi CLSI MIC fold change” value ([6]; guaB allele P25S) of the same molecule?
Answer: 2.5

Question: And the “GuaBi CLSI MIC fold change” value ([6]; guaB allele Y445C)?
Answer: 1

Question: And the “GuaBi CLSI MIC fold change” value ([6]; guaB allele Y445N)?
Answer: 7

Question: And the “GuaBi CLSI MIC fold change” value ([6]; guaB allele Y445S)?
Answer: 32
